Paper PMC6597546, “Identification of a potent benzoxaborole drug candidate for treating cryptosporidiosis” (Nature Communications, 2019)
Where “and” joins values, the source holds several entries; their conditions need not be identical. Identical values can stand only once.

Tested on: C. parvum (Bunch Grass Farms Iowa isolate)
Test: Neonatal calf model of cryptosporidiosis
Format: in vivo
Design: key to Oocyst Shedding, individual calves / Oocyst Shedding: C. parvum abundance per gram of fecal dry matter (qPCR); key to Fecal Consistency Score, individual calves / Fecal Consistency Score: score 1 = normal, 3 = severely abnormal
Protocol: All calf efficacy studies were performed as previously described. These studies were approved by the University of Vermont Institutional animal Care and Use Committee, and conducted in compliance with the USDA-APHIS “Blue Book”, available at www.aphis.usda.gov/animal-welfare. Holstein bull calves were acquired at birth from Green Mountain Dairy (Sheldon, VT), given synthetic colostrum with 200 g of IgG (Land O’Lakes, Ardent Hills, MO) and bovine coronavirus and Escherichia coli antibodies (First Defense Bolus, Immuncell Corporation, Portland, ME) within 2 h of birth, and transported to UVM. Calves were group-housed initially, and infected at 24–48 h of age during an interruption in bottle feeding by oral administration of ∼5 × 10^7 C. parvum Iowa isolate oocysts (Bunch Grass Farms, Deary, ID) suspended in 10 mL of water. They were then moved to individual raised pens, and observed twice daily at feeding times for clinical signs, which were quantified according to a previously described standardized scoring rubric. Data on fecal consistency, dehydration and overall health were collected, in each case with a score of 1 being normal and 3 being severely abnormal (scoring rubric in Supplementary Table 2). Clinical microbiologic studies for adventitious infectious agents including Salmonella culture, aerobic bacterial culture with E. coli genotyping, rotavirus, and coronavirus testing were performed on all calves at the onset of diarrhea by the Cornell Animal Health Diagnostic Center (Ithaca, NY). Animals with severe diarrhea or other symptoms were supported aggressively, including with administration of oral electrolytes, intravenous fluids and flunixin meglumine (Banamine, Merck) as needed. […] Daily fecal samples were obtained from collections bins located under each pen. Fecal samples used for parasite quantification were dried at 90 °C until stable in weight, and C. parvum abundance per gram of fecal dry matter was measured using qPCR and the primers Cp18s forward and Cp18s reverse.

[1] = 5 mg per kg twice daily oral, days 2–8
[2] = 6.67 mg/kg every 8 h for three days, Calf 1, Day 0
[3] = 6.67 mg/kg every 8 h for three days, Calf 1, Day 1
[4] = 6.67 mg/kg every 8 h for three days, Calf 1, Day 2
[5] = 6.67 mg/kg every 8 h for three days, Calf 1, Day 3
[6] = 6.67 mg/kg every 8 h for three days, Calf 1, Day 4
[7] = 6.67 mg/kg every 8 h for three days, Calf 1, Day 5
[8] = 6.67 mg/kg every 8 h for three days, Calf 1, Day 6
[9] = 6.67 mg/kg every 8 h for three days, Calf 1, Day 7
[10] = 6.67 mg/kg every 8 h for three days, Calf 1, Day 8
[11] = 6.67 mg/kg every 8 h for three days, Calf 1, Day 9
[12] = 6.67 mg/kg every 8 h for three days, Calf 1, Day 10
[13] = 6.67 mg/kg every 8 h for three days, Calf 1, Day 11
[14] = 6.67 mg/kg every 8 h for three days, Calf 1, Day 12
[15] = 6.67 mg/kg every 8 h for three days, Calf 1, Day 13
[16] = 6.67 mg/kg every 8 h for three days, Calf 1, Day 14
[17] = 6.67 mg/kg every 8 h for three days, Calf 2, Day 0
[18] = 6.67 mg/kg every 8 h for three days, Calf 2, Day 1
[19] = 6.67 mg/kg every 8 h for three days, Calf 2, Day 2
[20] = 6.67 mg/kg every 8 h for three days, Calf 2, Day 3
[21] = 6.67 mg/kg every 8 h for three days, Calf 2, Day 4
[22] = 6.67 mg/kg every 8 h for three days, Calf 2, Day 5
[23] = 6.67 mg/kg every 8 h for three days, Calf 2, Day 6
[24] = 6.67 mg/kg every 8 h for three days, Calf 2, Day 7
[25] = 6.67 mg/kg every 8 h for three days, Calf 2, Day 8
[26] = 6.67 mg/kg every 8 h for three days, Calf 2, Day 9
[27] = 6.67 mg/kg every 8 h for three days, Calf 2, Day 10
[28] = 6.67 mg/kg every 8 h for three days, Calf 2, Day 11
[29] = 6.67 mg/kg every 8 h for three days, Calf 2, Day 12
[30] = 6.67 mg/kg every 8 h for three days, Calf 2, Day 13
[31] = 6.67 mg/kg every 8 h for three days, Calf 2, Day 14
[32] = 6.67 mg/kg every 8 h for three days, Calf 3, Day 0
[33] = 6.67 mg/kg every 8 h for three days, Calf 3, Day 1
[34] = 6.67 mg/kg every 8 h for three days, Calf 3, Day 2
[35] = 6.67 mg/kg every 8 h for three days, Calf 3, Day 3
[36] = 6.67 mg/kg every 8 h for three days, Calf 3, Day 4
[37] = 6.67 mg/kg every 8 h for three days, Calf 3, Day 5
[38] = 6.67 mg/kg every 8 h for three days, Calf 3, Day 6
[39] = 6.67 mg/kg every 8 h for three days, Calf 3, Day 7
[40] = 6.67 mg/kg every 8 h for three days, Calf 3, Day 8
[41] = 6.67 mg/kg every 8 h for three days, Calf 3, Day 9
[42] = 6.67 mg/kg every 8 h for three days, Calf 3, Day 10
[43] = 6.67 mg/kg every 8 h for three days, Calf 3, Day 11
[44] = 6.67 mg/kg every 8 h for three days, Calf 3, Day 12
[45] = 6.67 mg/kg every 8 h for three days, Calf 3, Day 13
[46] = 6.67 mg/kg every 8 h for three days, Calf 3, Day 14
[47] = 10 mg per kg twice daily for 7 days begun day 4
[48] = 10 mg/kg every 12 h with delayed start, Calf 1, Day 0
[49] = 10 mg/kg every 12 h with delayed start, Calf 1, Day 1

## CC1(C)OB(O)c2cc(NC(=O)c3ccc(-n4cccn4)cc3Cl)ccc21 [AN7973]
[1]
  effect on diarrhea: completely eliminated diarrhea
  effect on parasite shedding: curtailed parasite shedding
5 mg/kg BID
  AUC for the dehydration scores, individual animals: 0
  AUC for the diarrhea scores, individual animals: 0
5 mg/kg every 12 h on days 2–8, Day 0
  Oocyst Shedding, individual calves: 100
5 mg/kg every 12 h on days 2–8, Day 1
  Oocyst Shedding, individual calves: 100 and 583
5 mg/kg every 12 h on days 2–8, Day 2
  Oocyst Shedding, individual calves: 4179 and 2794
5 mg/kg every 12 h on days 2–8, Day 3
  Oocyst Shedding, individual calves: 46248 and 34331
5 mg/kg every 12 h on days 2–8, Day 4
  Oocyst Shedding, individual calves: 68492 and 55772
5 mg/kg every 12 h on days 2–8, Day 6
  Oocyst Shedding, individual calves: 265539 and 3628
5 mg/kg every 12 h on days 2–8, Day 7
  Oocyst Shedding, individual calves: 39302 and 2599
5 mg/kg every 12 h on days 2–8, Day 8
  Oocyst Shedding, individual calves: 43202 and 100
5 mg/kg every 12 h on days 2–8, Day 9
  Oocyst Shedding, individual calves: 146 and 100
5 mg/kg every 12 h on days 2–8, Day 10
  Oocyst Shedding, individual calves: 611 and 192
6.67 mg per kg three times per day for 3 days
  effect on diarrhea: eliminated diarrhea
6.67 mg per kg three times per day for 3 days, parasitological relapse followed
  reduction of the rate of parasite shedding during treatment: ~3 log
6.67 mg/kg TID (3 days)
  AUC for the dehydration scores, individual animals: 0 and 0.3333
  AUC for the diarrhea scores, individual animals: 0 and 1.333
[2]
  Fecal Consistency Score: 1
  Oocyst Shedding: 415
[3]
  Fecal Consistency Score: 1
  Oocyst Shedding: 1163
[4]
  Fecal Consistency Score: 1
  Oocyst Shedding: 989897
[5]
  Fecal Consistency Score: 1
  Oocyst Shedding: 285174
[6]
  Fecal Consistency Score: 1
  Oocyst Shedding: 27986
[7]
  Fecal Consistency Score: 1
  Oocyst Shedding: 2214
[8]
  Fecal Consistency Score: 1
  Oocyst Shedding: 10466
[9]
  Fecal Consistency Score: 1
  Oocyst Shedding: 16062
[10]
  Fecal Consistency Score: 1
  Oocyst Shedding: 525550
[11]
  Fecal Consistency Score: 1
  Oocyst Shedding: 522608
[12]
  Fecal Consistency Score: 1
  Oocyst Shedding: 905562
[13]
  Fecal Consistency Score: 1
  Oocyst Shedding: 8303500
[14]
  Fecal Consistency Score: 1
  Oocyst Shedding: 134619
[15]
  Fecal Consistency Score: 1
  Oocyst Shedding: 473515
[16]
  Fecal Consistency Score: 1
  Oocyst Shedding: 35244
[17]
  Fecal Consistency Score: 2
  Oocyst Shedding: 1
[18]
  Fecal Consistency Score: 2
  Oocyst Shedding: 16497
[19]
  Fecal Consistency Score: 1
  Oocyst Shedding: 909
[20]
  Fecal Consistency Score: 1
  Oocyst Shedding: 179330
[21]
  Fecal Consistency Score: 1
  Oocyst Shedding: 38982
[22]
  Fecal Consistency Score: 1
  Oocyst Shedding: 6563
[23]
  Fecal Consistency Score: 1
  Oocyst Shedding: 1
[24]
  Fecal Consistency Score: 1
  Oocyst Shedding: 1
[25]
  Fecal Consistency Score: 1
  Oocyst Shedding: 1
[26]
  Fecal Consistency Score: 1
  Oocyst Shedding: 1
[27]
  Fecal Consistency Score: 1
  Oocyst Shedding: 162
[28]
  Fecal Consistency Score: 1
  Oocyst Shedding: 82
[29]
  Fecal Consistency Score: 1
  Oocyst Shedding: 1213
[30]
  Fecal Consistency Score: 1
  Oocyst Shedding: 387
[31]
  Fecal Consistency Score: 1
  Oocyst Shedding: 188
[32]
  Fecal Consistency Score: 1
  Oocyst Shedding: 1089
[33]
  Fecal Consistency Score: 1
  Oocyst Shedding: 3597
[34]
  Fecal Consistency Score: 1.33
  Oocyst Shedding: 9022387
[35]
  Fecal Consistency Score: 1.67
  Oocyst Shedding: 2560722
[36]
  Fecal Consistency Score: 1.5
  Oocyst Shedding: 582683
[37]
  Fecal Consistency Score: 1
  Oocyst Shedding: 6828
[38]
  Fecal Consistency Score: 1
  Oocyst Shedding: 54223
[39]
  Fecal Consistency Score: 1
  Oocyst Shedding: 8461
[40]
  Fecal Consistency Score: 1
  Oocyst Shedding: 2785
[41]
  Fecal Consistency Score: 1
  Oocyst Shedding: 50511
[42]
  Fecal Consistency Score: 1
  Oocyst Shedding: 198125
[43]
  Fecal Consistency Score: 1.33
  Oocyst Shedding: 100223
[44]
  Fecal Consistency Score: 1
  Oocyst Shedding: 154951
[45]
  Fecal Consistency Score: 1
  Oocyst Shedding: 141133
[46]
  Fecal Consistency Score: 1.5
  Oocyst Shedding: 78359
10 mg per kg once daily oral, days 2–8, shedding resumed and persisted
  effect on parasite shedding and diarrhea: reduced peak parasite shedding and diarrhea
[47]
  parasite shedding: abolished by day 14
  reduction of total parasite shedding: greater than 1 log
10 mg per kg twice daily for 7 days begun day 4 (peak of symptoms)
  diarrhea cured faster than in controls: 3 days
10 mg/kg BID (delayed start)
  AUC for the dehydration scores, individual animals: 0.3333 and 0 and 0.8333
  AUC for the diarrhea scores, individual animals: 1.167 and 2.333 and 2.833
10 mg/kg QD
  AUC for the dehydration scores, individual animals: 0.3333 and 0.5
  AUC for the diarrhea scores, individual animals: 2.5 and 1.833 and 2.167
[48]
  Fecal Consistency Score: 1.67
  Oocyst Shedding: 1
[49]
  Fecal Consistency Score: 2
  Oocyst Shedding: 735
